# Results from patent US20240217963A1, “RECEPTOR-INTERACTING PROTEIN 1 INHIBITORS, PREPARATIONS, AND USES THEREOF” (SIRONAX LTD., priority 2021, published 2024).
# Molecular target: T1, RIP1 (Homo sapiens, UniProt Q13546)
# T1 sequence (Q13546 1-671): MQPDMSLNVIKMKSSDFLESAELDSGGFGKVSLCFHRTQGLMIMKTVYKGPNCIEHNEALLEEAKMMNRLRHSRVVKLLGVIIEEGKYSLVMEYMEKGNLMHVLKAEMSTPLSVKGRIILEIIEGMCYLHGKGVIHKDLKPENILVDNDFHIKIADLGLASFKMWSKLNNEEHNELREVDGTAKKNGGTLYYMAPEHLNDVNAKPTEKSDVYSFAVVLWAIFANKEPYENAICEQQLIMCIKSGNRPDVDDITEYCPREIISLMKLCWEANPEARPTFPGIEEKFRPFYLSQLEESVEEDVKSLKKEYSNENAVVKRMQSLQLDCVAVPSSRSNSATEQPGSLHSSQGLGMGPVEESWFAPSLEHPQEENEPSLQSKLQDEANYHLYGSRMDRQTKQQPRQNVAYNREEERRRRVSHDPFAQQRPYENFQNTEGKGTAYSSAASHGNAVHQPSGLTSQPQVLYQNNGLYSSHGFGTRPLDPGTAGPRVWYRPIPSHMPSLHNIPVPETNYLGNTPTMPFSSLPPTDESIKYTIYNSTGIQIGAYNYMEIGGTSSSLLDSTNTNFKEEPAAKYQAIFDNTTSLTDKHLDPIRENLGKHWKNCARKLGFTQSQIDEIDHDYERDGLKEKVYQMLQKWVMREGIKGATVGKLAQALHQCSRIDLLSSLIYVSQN
# Experiment: Cellular RIP1 inhibitory activity: HT-29 necroptosis (TNFα/SMAC mimetic/zVAD-FMK) CellTiter-Glo viability assay
# Type: cell-based
# Conditions: HT-29 cells, TNF-α 10 ng/ml + SMAC mimetic 6 μM + zVAD-FMK 10 μM, 20 hours, geometric mean, read-out: EC50 Values of in vitro Cellular RIP1 Inhibitory Activity
row,Compound,EC50
1,"Cc1cnn(C)c1-c1nc(N2CCC(C(=O)N(C)Cc3cncs3)CC2)ncc1F [Compound 98, 1-(4-(1,4-dimethyl-1H-pyrazol-5-yl)-5-fluoropyrimidin-2-yl)-N-methyl-N-(thiazol-5-ylmethyl)piperidine-4-carboxamide]",0.1 to 100 nM
2,"CCN(Cc1cncs1)C(=O)C1CCN(c2ncc(F)c(-c3c(C)cnn3C)n2)CC1 [Compound 99, 1-(4-(1,4-dimethyl-1H-pyrazol-5-yl)-5-fluoropyrimidin-2-yl)-N-ethyl-N-(thiazol-5-ylmethyl)piperidine-4-carboxamide]",0.1 to 100 nM
